Results taken from patent publication US20170252446A1, “USE OF MESO- AND NANOPOROUS MATERIAL FOR SURFACTANT TRAPPING IN NANOPARTICLE SUSPENSIONS” (Therakine BioDelivery GmbH, priority 2014, published 2017).

Assay: Surface tension of SDS solution after repeated additions of mesoporous MCM particles (surfactant trapping)
Type: physicochemical
Conditions: pure SDS solution (8.2 mM), before addition of MCM particles
Protocol: Anionic mesoporous nanoparticles (MCM) were suspended into water, wetted, and separated from free water by centrifugation. Pure sodium dodecyl sulphate (SDS) solution (8.2 mM) provides a starting surface tension of about 36.5 mN/m. Per 1 g of MCM particles, 15 mL of SDS is added, resulting in an increase of the surface tension to 45 mN/m. Second, third, and fourth additions result in 57.5 mN/m, 66.8 mN/m, and 70.5 mN/m, respectively. After four mesoporous particle additions, the pure water value is already approached. This is illustrated in FIG. 1. Such non-limiting methods have been unexpectedly discovered to be useful for reliably and predictably preparing a stable nanoparticle suspension of a poorly soluble active ingredient. Cationic mesoporous nanoparticles (MCM) are suspended in water, wetted, and separated from free water by centrifugation. Pure sodium dodecyl sulphate (SDS) solution (8.2 mM) provides a starting surface tension of about 36.5 mN/m. Per 1 g of MCM particles, 15 mL of SDS is added, resulting in an increase of the surface tension to 40 mN/m. Second and third additions result in 54.0 mN/m and 70.0 mN/m, respectively. After three mesoporous particle additions, the pure water value is already approached. This is illustrated in FIG. 2. […]

starting surface tension: about 36.5 mN/m
SMILES: CCCCCCCCCCCCOS(=O)(=O)[O-].[Na+] [sodium dodecyl sulphate (SDS), sodium dodecyl sulphate]
